Test results as given in the supplement of paper PMC11208160.

experiment: recombinant UMI read abundance after kanamycin selection (control-corrected) (log10(CPM+1)); higher = more efficient recombination; extreme values may be limits of the assay; sequences stand for … in AGTGCAGAGAAAATCGGCCAGTTTTCTCTGCCTGCAGTCCGCATGCCGTGGGACCCCTTGGGTTCTAACCTGTTGCCTAGATTTATGCAGCGGACTGCCTTTCTCCCAAAGTGATAAACCGG…AGGTTGGTTTCACT; site = the 11-nt donor
Method in brief: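 Values are reported as log10(CPM+1), obtained by converting sequencing counts to CPM, averaging replicates and scaling by control-derived factors. The counts came from recombinant UMIs amplified by PCR across the donor–target junction. These UMIs came from a pooled Escherichia coli screen of donor and donor-binding-loop pairs for the IS621 bridge recombinase, plated with IPTG (0.07 mM) plus kanamycin or left unselected, in two replicates each.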
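Note: IS621 bridge recombinase in Escherichia coli cells against a fixed T5 target plasmid.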

Point of comparison: “TCCAATTCATGGACCGGTTTTCCCGGTAATCCGTATTTGGC (site TCCAATTCTGG)”, “recombinant UMI read abundance (log10)” value 0. Against it:
- TCATCGTCATGGACCGGTTTTCCCGGTAATCCGTATTTGAA (site TCATCGTCTTT) — higher, 0.467
- TCATGCCCATGGACCGGTTTTCCCGGTAATCCGTATTTGGC (site TCATGCCCTGC) — the same, 0
- TCATTATCATGGACCGGTTTTCCCGGTAATCCGTATTTGCA (site TCATTATCTTG) — higher, 1.7
- TCATTCTCATGGACCGGTTTTCCCGGTAATCCGTATTTGCT (site TCATTCTCTAG) — higher, 0.981
- TCATTGCCATGGACCGGTTTTCCCGGTAATCCGTATTTGAG (site TCATTGCCTCT) — within 0.2 log units, 0.00408
- TCATTTACATGGACCGGTTTTCCCGGTAATCCGTATTTGGA (site TCATTTACTTC) — within 0.2 log units, 0.164
- TCCAATACATGGACCGGTTTTCCCGGTAATCCGTATTTGCC (site TCCAATACTGG) — the same, 0
- TCCAATACATGGACCGGTTTTCCCGGTAATCCGTATTTGCC (site TCCAATCCTGG) — the same, 0
- TCCAATACATGGACCGGTTTTCCCGGTAATCCGTATTTGCC (site TCCAATGCTGG) — the same, 0
- TCCAATACATGGACCGGTTTTCCCGGTAATCCGTATTTGCC (site TCCAATTCTGG) — the same, 0
- TCCAATCCATGGACCGGTTTTCCCGGTAATCCGTATTTGCC (site TCCAATACTGG) — the same, 0
- TCCAATCCATGGACCGGTTTTCCCGGTAATCCGTATTTGCC (site TCCAATCCTGG) — the same, 0
- TCCAATCCATGGACCGGTTTTCCCGGTAATCCGTATTTGCC (site TCCAATGCTGG) — the same, 0
- TCCAATCCATGGACCGGTTTTCCCGGTAATCCGTATTTGCC (site TCCAATTCTGG) — the same, 0
- TCCAATTCATGGACCGGTTTTCCCGGTAATCCGTATTTGGC (site TCCAATTCTGA) — the same, 0
- TCCAATTCATGGACCGGTTTTCCCGGTAATCCGTATTTGGC (site TCCAATTCTGC) — the same, 0
- TCCAATTCATGGACCGGTTTTCCCGGTAATCCGTATTTGGC (site TCCAATTCTGT) — the same, 0
- TCCACCGCATGGACCGGTTTTCCCGGTAATCCGTATTTGCT (site TCCACCGCTAG) — the same, 0
- TCCACCGCATGGACCGGTTTTCCCGGTAATCCGTATTTGCT (site TCCACCGCTCG) — within 0.2 log units, 0.0171
- TCCACCGCATGGACCGGTTTTCCCGGTAATCCGTATTTGCT (site TCCACCGCTGG) — the same, 0
- TCCACCGCATGGACCGGTTTTCCCGGTAATCCGTATTTGCT (site TCCACCGCTTG) — the same, 0
- TCCACGCCATGGACCGGTTTTCCCGGTAATCCGTATTTGCC (site TCCACGCCTGG) — the same, 0
- TCCACTTCATGGACCGGTTTTCCCGGTAATCCGTATTTGAG (site TCCACTTCTCT) — within 0.2 log units, 0.0133
- TCCAGTGCATGGACCGGTTTTCCCGGTAATCCGTATTTGGT (site TCCAGTGCTAC) — within 0.2 log units, 0.00561
- TCCATAGCATGGACCGGTTTTCCCGGTAATCCGTATTTGTA (site TCCATAGCTTA) — within 0.2 log units, 0.0478
- TCCATTTCATGGACCGGTTTTCCCGGTAATCCGTATTTGCC (site TCCAATTCTGG) — the same, 0
- TCCATTTCATGGACCGGTTTTCCCGGTAATCCGTATTTGCC (site TCCACTTCTGG) — the same, 0
- TCCATTTCATGGACCGGTTTTCCCGGTAATCCGTATTTGCC (site TCCAGTTCTGG) — the same, 0
- TCCCAATCATGGACCGGTTTTCCCGGTAATCCGTATTTGTG (site TCCCAATCTCA) — within 0.2 log units, 0.00796
- TCCCACCCATGGACCGGTTTTCCCGGTAATCCGTATTTGAG (site TCCCACCCTCT) — within 0.2 log units, 0.00907
- TCCCATCCATGGACCGGTTTTCCCGGTAATCCGTATTTGGC (site TCCCATCCTGC) — the same, 0
- TCCCCAACATGGACCGGTTTTCCCGGTAATCCGTATTTGTC (site TCCCCAACTGA) — the same, 0
- TCCCCTGCATGGACCGGTTTTCCCGGTAATCCGTATTTGAT (site TCCCCTGCTAT) — within 0.2 log units, 0.00458
- TCCCGACCATGGACCGGTTTTCCCGGTAATCCGTATTTGAG (site TCCCGACCTCT) — within 0.2 log units, 0.00764
- TCCCGGACATGGACCGGTTTTCCCGGTAATCCGTATTTGTC (site TCCCGGACTGA) — higher, 0.905
- TCCCGTTCATGGACCGGTTTTCCCGGTAATCCGTATTTGAA (site TCCCGTTCTTT) — the same, 0
- TCCCTACCATGGACCGGTTTTCCCGGTAATCCGTATTTGAT (site TCCCTACCTAT) — the same, 0
- TCCCTTCCATGGACCGGTTTTCCCGGTAATCCGTATTTGAG (site TCCCTTCCTCT) — within 0.2 log units, 0.0101
- TCCGATGCATGGACCGGTTTTCCCGGTAATCCGTATTTGTT (site TCCGATGCTAA) — the same, 0
- TCCGGGCCATGGACCGGTTTTCCCGGTAATCCGTATTTGAC (site TCCGGGCCTGT) — the same, 0
- TCCGTCCCATGGACCGGTTTTCCCGGTAATCCGTATTTGCA (site TCCGTCCCTTG) — the same, 0
- TCCTAATCATGGACCGGTTTTCCCGGTAATCCGTATTTGTT (site TCCTAATCTAA) — the same, 0
- TCCTAGACATGGACCGGTTTTCCCGGTAATCCGTATTTGGG (site ACCTAGACTCC) — within 0.2 log units, 0.034
- TCCTAGACATGGACCGGTTTTCCCGGTAATCCGTATTTGGG (site CCCTAGACTCC) — within 0.2 log units, 0.0212
- TCCTAGACATGGACCGGTTTTCCCGGTAATCCGTATTTGGG (site GCCTAGACTCC) — within 0.2 log units, 0.0199
- TCCTAGACATGGACCGGTTTTCCCGGTAATCCGTATTTGGG (site TCCTAGACTCC) — within 0.2 log units, 0.00458
- TCCTAGTCATGGACCGGTTTTCCCGGTAATCCGTATTTGTA (site TCCTAGTCTTA) — higher, 0.256
- TCCTATACATGGACCGGTTTTCCCGGTAATCCGTATTTGGA (site TCCTATACTTC) — within 0.2 log units, 0.0113
- TCCTCATCATGGACCGGTTTTCCCGGTAATCCGTATTTGGA (site TCCTCATCTTC) — within 0.2 log units, 0.00521
- TCCTTATCATGGACCGGTTTTCCCGGTAATCCGTATTTGTT (site TCCTTATCTAA) — the same, 0
- TCCTTTGCATGGACCGGTTTTCCCGGTAATCCGTATTTGTG (site TCCTTTGCTCA) — within 0.2 log units, 0.0203
- TCGAAAACATGGACCGGTTTTCCCGGTAATCCGTATTTGTT (site TCGAAAACTAA) — the same, 0
- TCGAATTCATGGACCGGTTTTCCCGGTAATCCGTATTTGCC (site TCAAATTCTGG) — the same, 0
- TCGAATTCATGGACCGGTTTTCCCGGTAATCCGTATTTGCC (site TCCAATTCTGG) — the same, 0
- TCGAATTCATGGACCGGTTTTCCCGGTAATCCGTATTTGCC (site TCGAATTCTGG) — the same, 0
- TCGAATTCATGGACCGGTTTTCCCGGTAATCCGTATTTGCC (site TCTAATTCTGG) — within 0.2 log units, 0.193
- TCGACACCATGGACCGGTTTTCCCGGTAATCCGTATTTGGC (site TCGACACCTGC) — the same, 0
- TCGACGGCATGGACCGGTTTTCCCGGTAATCCGTATTTGAG (site TCGACGGCTCT) — higher, 0.666
- TCGACTCCATGGACCGGTTTTCCCGGTAATCCGTATTTGTC (site TCGACTCCTGA) — the same, 0
- TCGAGTCCATGGACCGGTTTTCCCGGTAATCCGTATTTGAA (site TCGAGTCCTTT) — higher, 0.307
- TCGCCTGCATGGACCGGTTTTCCCGGTAATCCGTATTTGGT (site TCGCCTGCTAC) — within 0.2 log units, 0.0077
- TCGCTCCCATGGACCGGTTTTCCCGGTAATCCGTATTTGAA (site TCGCTCCCTTT) — within 0.2 log units, 0.0848
- TCGGAAACATGGACCGGTTTTCCCGGTAATCCGTATTTGGT (site TCGGAAACTAC) — higher, 0.88
- TCGGAACCATGGACCGGTTTTCCCGGTAATCCGTATTTGTA (site TCGGAACCTTA) — the same, 0
- TCGGAATCATGGACCGGTTTTCCCGGTAATCCGTATTTGCG (site TAGGAATCTCG) — higher, 0.861
- TCGGAATCATGGACCGGTTTTCCCGGTAATCCGTATTTGCG (site TCGGAATCTCG) — higher, 1.26
- TCGGAATCATGGACCGGTTTTCCCGGTAATCCGTATTTGCG (site TGGGAATCTCG) — higher, 0.211
- TCGGAATCATGGACCGGTTTTCCCGGTAATCCGTATTTGCG (site TTGGAATCTCG) — higher, 1.03
- TCGGACCCATGGACCGGTTTTCCCGGTAATCCGTATTTGAA (site TCGGACCCTTT) — higher, 0.274
- TCGGACTCATGGACCGGTTTTCCCGGTAATCCGTATTTGTT (site TCGGACTCTAA) — higher, 3.01
- TCGGCCCCATGGACCGGTTTTCCCGGTAATCCGTATTTGTT (site TCGGCCCCTAA) — within 0.2 log units, 0.0126
- TCGGGAACATGGACCGGTTTTCCCGGTAATCCGTATTTGAT (site TCGGGAACTAT) — higher, 1.61
- TCGGTACCATGGACCGGTTTTCCCGGTAATCCGTATTTGCC (site TCGGTACCTGG) — the same, 0
- TCGGTATCATGGACCGGTTTTCCCGGTAATCCGTATTTGGT (site TCGGTATCTAC) — higher, 1.89
